Values of other authors in patent US20220347157A1, “SUSTAINED RELEASE PHARMACEUTICAL COMPOSITIONS COMPRISING (1R, 5S)-1-(NAPHTHALEN-2-YL)-3-AZABICYCLO[3.1.0]HEXANE” (OTSUKA AMERICA PHARMACEUTICAL, INC., priority 2013, published 2022).

Experiments:
[1] = biological target: dopamine reuptake (DA) (Homo sapiens, UniProt Q01959); settings: fraction of the potency towards norepinephrine reuptake
[2] = biological target: serotonin reuptake (5-HT) (Homo sapiens, UniProt P31645); settings: fraction of the potency towards norepinephrine reuptake
serotonin reuptake (5-HT), sequence (P31645 whole entry): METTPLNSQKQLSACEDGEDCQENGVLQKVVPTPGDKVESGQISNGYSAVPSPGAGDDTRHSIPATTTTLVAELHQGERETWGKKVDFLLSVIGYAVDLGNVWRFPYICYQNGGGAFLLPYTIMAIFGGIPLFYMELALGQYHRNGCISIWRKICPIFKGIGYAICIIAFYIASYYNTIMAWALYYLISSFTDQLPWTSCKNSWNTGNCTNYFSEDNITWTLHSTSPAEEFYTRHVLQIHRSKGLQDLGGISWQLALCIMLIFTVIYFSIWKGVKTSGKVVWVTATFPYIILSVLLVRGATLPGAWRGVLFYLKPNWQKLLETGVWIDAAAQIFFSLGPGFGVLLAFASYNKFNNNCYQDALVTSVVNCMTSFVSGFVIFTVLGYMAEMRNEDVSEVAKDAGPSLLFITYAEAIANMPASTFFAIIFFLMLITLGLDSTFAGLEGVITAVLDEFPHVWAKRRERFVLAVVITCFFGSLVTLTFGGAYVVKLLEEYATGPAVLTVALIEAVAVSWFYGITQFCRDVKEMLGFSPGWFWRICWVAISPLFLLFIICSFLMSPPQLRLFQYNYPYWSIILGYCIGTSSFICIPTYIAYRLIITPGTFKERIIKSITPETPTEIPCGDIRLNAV

dopamine reuptake (DA), sequence (Q01959 whole entry): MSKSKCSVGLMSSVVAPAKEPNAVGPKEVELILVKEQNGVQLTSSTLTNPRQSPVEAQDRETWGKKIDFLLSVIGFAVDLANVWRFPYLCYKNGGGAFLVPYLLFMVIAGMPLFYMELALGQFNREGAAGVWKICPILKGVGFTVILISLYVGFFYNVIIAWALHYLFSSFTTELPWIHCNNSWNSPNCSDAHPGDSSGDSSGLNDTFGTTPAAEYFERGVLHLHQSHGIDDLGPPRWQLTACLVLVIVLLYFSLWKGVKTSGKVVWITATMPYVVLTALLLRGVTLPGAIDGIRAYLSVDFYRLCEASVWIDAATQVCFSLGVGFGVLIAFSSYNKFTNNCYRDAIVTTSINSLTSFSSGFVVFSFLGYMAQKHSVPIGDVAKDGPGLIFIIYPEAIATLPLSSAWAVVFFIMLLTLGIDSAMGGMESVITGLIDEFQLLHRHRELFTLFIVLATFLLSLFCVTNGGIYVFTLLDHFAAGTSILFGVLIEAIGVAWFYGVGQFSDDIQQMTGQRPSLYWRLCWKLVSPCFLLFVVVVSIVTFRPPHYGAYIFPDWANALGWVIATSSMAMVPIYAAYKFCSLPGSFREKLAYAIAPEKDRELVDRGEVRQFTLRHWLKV

For c1ccc2cc([C@]34CNC[C@H]3C4)ccc2c1 [(1R,5S)-1-(naphthalen-2-yl)-3-azabicyclo[3.1.0]hexane], the “potency towards dopamine reuptake (DA) relative to norepinephrine reuptake (NE)” value [1] is given as “one-sixth as much” and the “potency towards serotonin reuptake (5-HT) relative to norepinephrine reuptake (NE)” value [2] is given as “one-fourteenth as much”.
